Test results taken from PMC4603705, “A bioinspired peptide scaffold with high antibiotic activity and low in vivo toxicity” (Scientific Reports, 2015).
In brackets after ≈: the same amount, converted by molar mass. Entries after “also recorded” stand apart in the source; their conditions may differ. Like-named read-outs stand apart in the source and are kept apart here. Bridge positions count the residues as written; N and C are the ends. Square brackets hold non-standard residues; d marks the D form. Peptide text beside a SMILES is read from it. * marks the point of attachment. Decanoyl = CCCCCCCCCC(=O)*; X1 = CC[C@H](C)CCCCC(=O)*; Nle = CCCC[C@H](N)C(=O)O; Dab = NCC[C@H](N)C(=O)O

Legend:
[1] = system: P. aeruginosa ATTC 9027; assay type: cell-based, Pseudomonas aeruginosa
Procedure: (§1) MICs were measured after 18–20 h of incubation in sterile 96-well plates (Corning Costar 3598 microtiter plates) in Mueller Hinton Broth (MHB) culture medium, (Difco, USA), according to well known in vitro protocols. Bacterial strains in Table 1 were: P. aeruginosa ATTC 9027, E. coli ATTC 8739, S. aureus ATTC 6538, and E. faecalis ATTC 29212. MICs shown in table 4 were performed by Mary Conrad at Cubist Pharmaceuticals (Lexington, MA) in non-binding surface plates.

[2] = system: E. coli ATTC 8739; assay type: cell-based, Escherichia coli
Procedure: as §1

[3] = system: E. coli; conditions: for MIC E. coli NDM-1: highly-resistant, New Delhi metallo-beta-lactamase gene; for MIC E. coli VAL 5 / MIC E. coli MAC 21a / MIC E. coli VAL 10: resistant to nalidixic acid; for MIC E. coli MAC 21a / MIC E. coli VAL 10: cotrimoxazole and ampicillin
Procedure: (§2) Strains of E. coli and P. aeruginosa with resistance to quinolones and carbapenems as well as multi-drug-resistant bacteria were tested.
as §1

[4] = system: P. aeruginosa
Procedure: as §2, §1

[5] = In vivo acute toxicity test (up-and-down procedure, OECD 425); design: species or system mice; conditions: mouse, in vivo, sc; CD-1 mice, subcutaneous, up-and-down procedure, maximum likelihood method, 14 days
Procedure: (§3) An in vivo acute toxicity test was performed on CD-1 mice. The lethal dose (LD50) was determined according to the up-and-down procedure. Compound 38 was administered subcutaneously at designated doses (100, 200 and 400 mg/kg).
(§4) The evaluation of acute toxicity was conducted based on OECD 425 (Acute Oral Toxicity – Up-and-Down-Procedure (UDP) March 2006). The procedure was evaluated and accepted by the Ethical Committee of Experimental Animals of the University of Barcelona.
(§5) The main test consists of a single ordered dose progression in which animals are dosed, one at a time, at a minimum of 24-hour intervals.
(§6) Compound 38 was dissolved in PBS (pH 7.4), and administered subcutaneously to CD-1 mice at selected doses (100, 200 and 400 mg/kg). Since 5 reversals occurred in 6 consecutive animals tested between the 200 mg/Kg dose (the 3 animals, survived), and the 400 mg/Kg dose (the 3 animals died) the test was stopped.
(§7) Mortality was monitored for 14 days post-treatment, and LD50 was determined using the maximum likelihood method.

[6] = system: CD-1 mice; assay: as above; conditions: for Outcome of mice: CD-1 mice
Procedure: as §3, §4, §5, §6, §7

[7] = system: E. coli (ATCC 25922); assay: Flow cytometry (PI membrane permeability, BOX membrane potential), E. coli; assay type: cell-based, Escherichia coli
Procedure: (§8) The mechanism of action at the membrane level of our best candidate was studied using flow cytometry. To assess membrane permeability, a propidium iodide (PI) probe was used[43][44]. The fluorescence conferred by this probe is generally associated with cells that have lost their membrane integrity. The effect on membrane potential was evaluated with bis-(1,3-dibutylbarbituric acid) trimethine oxonol (BOX). Membrane depolarization leads to the incorporation of this anionic dye into the cell where it binds to lipid-rich intracellular compounds, resulting in an increase in fluorescence.
(§9) An overnight culture (12 to 16 h) of S. aureus (ATCC 29213) or E. coli (ATCC 25922) in Tryptic Soy Broth (TSB) was grown at 37 °C and 400 μL were added in 50 mL of tryptone water (∼10^7 bacteria/mL). The bacterial suspension was split into aliquots of 4-5 mL and treated with the peptides (at the MIC) for different incubation times at room temperature. Cells were collected by centrifugation (10000 rpm, 20 min) and resuspended in 1 mL of filtered Ringer’s solution.
(§10) A stock solution of propidium iodide (PI, 1 mg/mL, Molecular Probes) and bis-(1,3-dibutylbarbituric acid) trimethine oxonol (BOX, 250 μM, Sigma Aldrich) was prepared in distilled water. Portions (10 μL and 2 μL, respectively) were added to aliquots of cells (100 μL of each sample in 1 mL of Ringer’s solution) to give a final concentration of 10 μg/mL of PI and 0.5 μM for BOX.
(§11) Flow cytometric measurements were performed on a Gallios multi-colour flow cytometer instrument (Beckman Coulter, Inc, Fullerton, CA) set up with the 3-lasers 10 colors standard configuration. Excitation was done using a blue (488 nm) laser. Forward scatter (FS), side scatter (SS), green fluorescence (525/40 nm) from BOX and red fluorescence (620/30 nm) emitted by PI were collected using logarithmic scales. FS was used as the discriminating parameter. The single-cell bacterial population was selected on a forward-side scatter plot. Fluorescence was presented in a dot plot of BOX vs. PI. Three regions were defined on this graph according to the controls: depolarized, permeabilized and non-affected cells. Control cells (non-stained and single stained populations) were used to define these regions. 25,000 cells defined according to their scatter parameters were counted in each sample.

[8] = system: S. aureus (ATCC 29213); assay: Flow cytometry (PI membrane permeability, BOX membrane potential), S. aureus; assay type: cell-based, Staphylococcus aureus; conditions: 4 μg/mL
Procedure: as §8, §9, §10, §11

[9] = system: E. coli (ATCC 25922); assay: Reduction of viability by plate count, E. coli; assay type: cell-based, Escherichia coli
Procedure: as §9

[10] = system: S. aureus (ATCC 29213); assay: Reduction of viability by plate count, S. aureus; assay type: cell-based, Staphylococcus aureus; conditions: 4 μg/mL
Procedure: as §9

[11] = system: E. coli (ATCC 25922); assay: Transmission electron microscopy of treated E. coli; assay type: cell-based, Escherichia coli
Procedure: (§12) An overnight culture (12 to 16 h) of S. aureus (ATCC 29213) or E. coli (ATCC 25922) in Tryptic Soy Broth (TSB) was grown at 37 °C and 500 μL were added in 50 mL of tryptone water (∼10^8 bacteria/mL). […] Cells were collected by centrifugation (10000 rpm, 20 min).
(§13) Samples were fixed with 2.5% glutaraldehyde in phosphate buffer for 2 h at 4 °C, then washed with the same buffer and post fixed with 1% osmium tetroxide in buffer containing 0.8% potassium ferricyanide at 4 °C. The samples were then dehydrated for 1 hour in acetone and infiltrated in a gradded series of Epon resin (Ted Pella Inc., USA) during 2 days, and finally embedded in fresh Epon resin and polymerised at 60 °C during 48 hours.
(§14) Ultrathin sections were obtained using a Leica Ultracut UCT ultramicrotome (Leica, Vienna) and mounted on Formvar-coated copper grids. Sections were stained with 2% aqueous uranyl acetate and lead citrate and examined in a JEM-1010 electron microscope (Jeol, Japan).

[12] = system: S. aureus (ATCC 29213); assay: Transmission electron microscopy of treated S. aureus; assay type: cell-based, Staphylococcus aureus; conditions: 4 μg/mL, 120 min
Procedure: as §12, §13, §14

[13] = system: P. aeruginosa; conditions: P. aeruginosa 40b strain characterisation; cited from earlier work
[14] = system: S. aureus ATTC 6538; assay: microbe, parasite or virus in culture; assay type: cell-based, Staphylococcus aureus; conditions: S. aureus ATTC 6538; Mueller Hinton Broth, 18–20 h
Procedure: as §1

[15] = system: CD-1 mice; conditions: reported value, no reference given; cited from earlier work
[16] = target: alternative NADH dehydrogenase; design: method as in PMID 19564154, PMID 24169795; conditions: Mycobacterium smegmatis; cited from earlier work
[17] = target: malate:quinone oxidoreductase; design: method as in PMID 19564154; conditions: Mycobacterium smegmatis; cited from earlier work
[18] = design: method as in PMID 22908162, PMID 24733472; conditions: after iv administration, after 6 h; cited from earlier work

Structure (SMILES): CCCCCCCCCC(=O)N[C@@H](CCN)C(=O)N[C@H](C(=O)N[C@@H](CCN)C(=O)N[C@H]1CSSC[C@H](C(N)=O)NC(=O)[C@H](CCN)NC(=O)[C@H](CCN)NC(=O)[C@H](CCCC)NC(=O)[C@@H](Cc2ccccc2)NC(=O)[C@H](CCN)NC1=O)[C@@H](C)O [Analog 38, decanoyl -Dab-Thr-Dab-Cys-Dab-Phe-Nle-Dab-Dab-Cys] (Decanoyl-[Dab]T[Dab]C[Dab][dF][Nle][Dab][Dab][dC]-NH2; disulfide 4-10)
- MIC P. aeruginosa ([1]; ATTC 9027): 1 µg/mL (≈ 0.808 µM)
- MIC E. coli ([2]; ATTC 8739): 2 µg/mL (≈ 1.62 µM)
- MIC E. coli NDM-1 [3]: 0.5 µg/mL (≈ 0.404 µM)
- MIC E. coli VAL 5 [3]: 0.5 µg/mL (≈ 0.404 µM)
- MIC E. coli MAC 21a [3]: 0.5 µg/mL (≈ 0.404 µM)
- MIC E. coli VAL 10 [3]: 0.5 µg/mL (≈ 0.404 µM)
- MIC P. aeruginosa 38a [4]: 0.5 µg/mL (≈ 0.404 µM)
- MIC P. aeruginosa 40b [4]: 4 µg/mL (≈ 3.23 µM)
- LD50 at 14 days [5]: 283 mg/kg
- Outcome of mice ([6]; 100 mg/kg subcutaneous): survived with no signs of toxicity
- Outcome of mice ([6]; 200 mg/kg subcutaneous): survived with no signs of toxicity; also recorded: survived
- Necropsy of surviving mice ([6]; 200 mg/kg subcutaneous, after 14 days): no signs of pathology in vital organs
- Outcome of mice ([6]; 400 mg/kg subcutaneous): died
- LD50 relative to LD50 of PxB ([6]; subcutaneous): ~5 times
- % of stained cells PI ([7]; 4 μg/mL, 30 min): 7%
- % of stained cells BOX ([7]; 4 μg/mL, 30 min, listed as 38): around 50%
- % of stained cells BOX ([7]; 4 μg/mL, 30 min, listed as #38): 47%
- % of stained cells BOX ([7]; 4 μg/mL, 60 min): 50%
- % of stained cells PI ([7]; 4 μg/mL, 60 min): 23%
- % of stained cells BOX ([7]; 4 μg/mL, 120 min): 47%
- % of stained cells PI ([7]; 4 μg/mL, 120 min): 43%
- % of stained cells BOX ([8]; 30 min): 1%
- % of stained cells PI ([8]; 30 min): 2%
- % of stained cells BOX ([8]; 60 min): 1%
- % of stained cells PI ([8]; 60 min): 3%
- % of stained cells BOX ([8]; 120 min): 4%
- % of stained cells PI ([8]; 120 min): 4%
- % viability reduction ([9]; 4 μg/mL, 30 min): 20%
- % viability reduction ([9]; 4 μg/mL, 60 min): 60%
- % viability reduction ([9]; 4 μg/mL, 120 min): 85%
- % viability reduction ([10]; 30 min): 15%
- % viability reduction ([10]; 60 min): 60%
- % viability reduction ([10]; 120 min): 85%
- Effect on cell morphology (TEM) ([11]; 120 min, 2 μg/mL (Figure 2 legend)): abnormal membrane septation and the formation of blebs on the bacterial surface
- Effect on cell morphology (TEM) [12]: numerous double-layered spherical mesosome-like structures

Structure (SMILES): C[C@@H](O)[C@H]1C(=O)N2C(C(=O)O)=C(SCCN=CN)C[C@H]12 [Imipenem]
- MIC, resistance profile of P. aeruginosa 40b [13]: imipenem (MIC 32 mg/L)

Structure (SMILES): CC[C@H](C)CCCCC(=O)N[C@@H](CCN)C(=O)N[C@H](C(=O)N[C@@H](CCN)C(=O)N[C@H]1CCNC(=O)[C@H]([C@@H](C)O)NC(=O)[C@H](CCN)NC(=O)[C@H](CCN)NC(=O)[C@H](CC(C)C)NC(=O)[C@@H](Cc2ccccc2)NC(=O)[C@H](CCN)NC1=O)[C@@H](C)O [Polymyxin B] (X1-[Dab]T[Dab][Dab][Dab][dF]L[Dab][Dab]T; lactam 4-C; N-terminus assumed)
- MIC S. aureus [14]: >32 µg/mL
- MIC P. aeruginosa ([1]; P. aeruginosa ATTC 9027, Mueller Hinton Broth, 18–20 h): 2 µg/mL (≈ 1.66 µM)
- MIC E. coli ([2]; E. coli ATTC 8739, Mueller Hinton Broth, 18–20 h): 1 µg/mL (≈ 0.831 µM)
- MIC E. coli NDM-1 [3]: 0.5 µg/mL (≈ 0.415 µM)
- MIC E. coli VAL 5 [3]: 0.25 µg/mL (≈ 0.208 µM)
- MIC E. coli MAC 21a [3]: 0.25 µg/mL (≈ 0.208 µM)
- MIC E. coli VAL 10 [3]: 0.25 µg/mL (≈ 0.208 µM)
- MIC P. aeruginosa 38a ([4]; resistant to ceftazidime, ciprofloxacin, imipenem, piperacillin-tazobactam): 1 µg/mL
- MIC P. aeruginosa 40b ([4]; resistant to imipenem): 2 µg/mL (≈ 1.66 µM)
- % of stained cells PI ([7]; 0.5 μg/mL, 5 min): 11%
- % of stained cells BOX ([7]; 0.5 μg/mL, 10 min): 35%
- % of stained cells PI ([7]; 0.5 μg/mL, 10 min): 20%
- % of stained cells BOX ([7]; 0.5 μg/mL, 15 min): 17%
- % of stained cells PI ([7]; 0.5 μg/mL, 15 min): 60%
- % of stained cells BOX ([7]; 0.5 μg/mL, 30 min): 13%
- % of stained cells PI ([7]; 0.5 μg/mL, 30 min): 68%
- % of stained cells BOX ([7]; 0.5 μg/mL, 60 min): 23%
- % of stained cells PI ([7]; 0.5 μg/mL, 60 min): 57%
- % of stained cells BOX ([7]; 0.5 μg/mL, 120 min): 17%
- % viability reduction ([9]; 0.5 μg/mL, 5 min): 0%
- % viability reduction ([9]; 0.5 μg/mL, 10 min): 20%
- % viability reduction ([9]; 0.5 μg/mL, 15 min): 34%
- % viability reduction ([9]; 0.5 μg/mL, 30 min): 65%
- % viability reduction ([9]; 0.5 μg/mL, 60 min): 87%
- % viability reduction ([9]; 0.5 μg/mL, 120 min): 98%
- Effect on cell morphology (TEM) ([11]; 120 min at 0.5 μg/mL): numerous protrusions were observed at the outer cell membrane and even some completely lysed membranes
- LD50 reported for subcutaneous administration [15]: 59.5 mg/kg
- IC50 alternative NADH dehydrogenase [16]: 1.6 µg/mL (≈ 1.33 µM)
- IC50 malate:quinone oxidoreductase [17]: 4.3 µg/mL (≈ 3.57 µM)
- kidney concentration relative to serum concentration [18]: more than 30 times
